The nature of this assay: Effective concentration of glycerol (Example 2; sputum dried 4 hours, 15 minutes incubation in third cycle). Particulars: glycerol and dextran sulfate combination in 0.85% NaCl. Also noted: species or system Human.

Method: Test solutions containing different concentrations of glycerol and dextran sulfate (w/v) were prepared in 0.85% normal saline. All steps were performed at 37° C. unless specified otherwise. Each well of a 48 well microtitre plate was pre-wetted with a test solution for 2 hours. Human sputum (20 μl) was then allowed to dry for 2 hours on the pre-wetted surface, followed by incubation with 100 μl of the test solution for 15 minutes to dissolve the dried sputum, and subsequent removal of the solution. The complete cycle of sputum drying, incubation with the test solution and removal, was repeated three times. In the third and final cycle, the dried sputum was incubated with the test solution overnight instead of 15 minutes. Visual observations were recorded at each cycle and pictures were taken under a microscope.
Sputum was dried for 4 hours instead of 2 hours in each cycle, and in the third cycle dried sputum was incubated with the test solution for only 15 minutes instead of an overnight incubation.
All the test solutions contained 0.85% of NaCl.

With dextran sulfate, the “Most effective concentration range” value is listed as 10-20%. The same measure for `OCC(O)CO` [glycerol]: 30-50%.

(Values after US8691286B2, “Sputum dissolving suctioning solution for endotracheal and tracheostomy tubes” (Teleflex Medical Incorporated, priority 2009, dated 2014).)
